The source of these data is patent US5942527A, “Hydrazones, hydrazines, semicarbazones and thiosemicarbazones derived from pyridyl ketones as anticonvulsant drugs and excitatory amino acid antagonists” (K & K Biosciences, Inc., priority 1997, dated 1999).

SMILES strings stand for the structures.

One data set has as its system TTE seizure. As to the kind of experiment: Threshold tonic extension (TTE) test, mouse, i.p. In kind it is in vivo. The text has this: (§1) The hydrazones, hydrazines and semicarbazones derived from pyridyl ketones and the resulting orally effective anticonvulsant compositions of this invention are useful in the treatment of convulsive disorders. […] A series of hydrazones, hydrazines and semicarbazones derived from pyridyl ketones of this invention has been evaluated for anticonvulsant activity by the intraperitoneal (i.p.) and by the oral (p.o.) route using two standard seizure models in the mouse and in the rat, the maximal electroshock seizure (MES) test and the subcutaneous pentylenetetrazole (Metrazole) seizure threshold (scMet) test. […] In addition, the compounds are evaluated in a new model, the threshold tonic extension (TTE) model. […] Thus active compounds that may be missed in the MES and scMet tests in the mouse, i.p., can be detected in the TTE test.
The Threshold Tonic Extension (TTE) Test: The TTE test (Piredda et al., 1985) is a clinically nonselective, electroconvulsive seizure model that identifies compounds that raise seizure threshold as well as those that prevent seizure spread. […] The test is similar to the MES screen but uses a lower level of electrical current. The lower current makes the TTE test more sensitive but less discriminate than the MES screen. This ability makes the model attractive because it allows us to identify compounds that may be missed by our standard identification screen.
Twenty mice are pretreated intraperitoneally with 100 mg/kg of the test substance. At several time intervals (1/4, 1/2, 1, 2, and 4 hours) post treatment with the test drug, four mice at each time point are challenged with 12.5 mA of electrical current for 0.2 seconds via corneal electrodes. This produces a TTE seizure in the animals (Woodbury and Davenport, 1952).
For each time interval results are expressed as a ratio of the number of animals protected over the number tested. […] The positives may represent compounds acting by novel mechanisms.

For data set [1], the system named is maximal electroshock seizures. As to the kind of experiment: Maximal electroshock seizure (MES) test, rat, p.o. In kind it is in vivo, rat (Sprague-Dawley). To be noted: for ED50 / responders at 30 mg/kg: po; for responders at 30 mg/kg: several time points over a 4 hour period, read-out: Percent Protection at 30 mg/kg, in the MES test; for P.I., TD50/ED50, MES: Table 6; for protection at 30 mg/kg, MES Test: Table 7. The text has this:
The hydrazones, hydrazines and semicarbazones derived from pyridyl ketones and the resulting orally effective anticonvulsant compositions of this invention are useful in the treatment of convulsive disorders. […] A series of hydrazones, hydrazines and semicarbazones derived from pyridyl ketones of this invention has been evaluated for anticonvulsant activity by the intraperitoneal (i.p.) and by the oral (p.o.) route using two standard seizure models in the mouse and in the rat, the maximal electroshock seizure (MES) test and the subcutaneous pentylenetetrazole (Metrazole) seizure threshold (scMet) test. […] In addition, the compounds are evaluated in a new model, the threshold tonic extension (TTE) model. […] Thus active compounds that may be missed in the MES and […] the mouse, i.p., can be detected in the TTE test. The Maximal Electroshock Seizure Test (MES): Maximal electroshock seizures are elicited with a 60 Hz alternating current of 50 mA intensity in mice and about 150 mA intensity in rats (5-7 times that necessary to elicit minimal electroshock seizures), delivered for 0.2 sec via corneal electrodes. A drop of 0.9% saline is instilled in the eye prior to application of the electrodes in order to […]. Abolition of the hind limb tonic extension component of the seizure is defined as protection and results are expressed as number of animals protected/number of animals tested. […] This species will be the subject of the complete anticonvulsant quantification test evaluation as described above, but after oral (gavage) administration of the candidate compound.
In general terms: In the maximal electroshock model the usual endpoint is tonic extension of the hind limbs.

Data set [2] deals with maximal electroshock seizures. In words: Maximal electroshock seizure (MES) test, mouse, i.p. The class given is in vivo, mouse (male Carworth Farms #1). To be noted: for ASP Group Classification, MES Test: mouse, 30, 100 and 300 mg/kg; for ED50: Mus musculus, ip; for ED50 / P.I., TD50/ED50, MES: mice, Table 5. The text has this:
The hydrazones, hydrazines and semicarbazones derived from pyridyl ketones and the resulting orally effective anticonvulsant compositions of this invention are useful in the treatment of convulsive disorders. […] A series of hydrazones, hydrazines and semicarbazones derived from pyridyl ketones of this invention has been evaluated for anticonvulsant activity by the intraperitoneal (i.p.) and by the oral (p.o.) route using two standard seizure models in the mouse and in the rat, the maximal electroshock seizure (MES) test and the subcutaneous pentylenetetrazole (Metrazole) seizure threshold (scMet) test. […] In addition, the compounds are evaluated in a new model, the threshold tonic extension (TTE) model. […] Thus active compounds that may be missed in the MES and […] the mouse, i.p., can be detected in the TTE test. Based on the screening results, the compounds are placed in one of three categories. […] Class II compounds show anticonvulsant activity at doses greater than 100 mg/kg or show activity at 100 mg/kg which is not reinforced by similar activity at 300 mg/kg. […] The Class I compounds are those which are most promising as anticonvulsants. […] In mice. i.p.: All compounds are emulsified in 0.5% methylcellulose. The solvent has been tested for anticonvulsant and toxic effects and found to introduce no significant bias into the testing of anticonvulsant activity. The compounds are administered intraperitoneally in a volume of 0.01 ml/gm to male Carworth Farms #1 mice weighing about 20 gm. All compounds are tested at least at three dose levels (30, 100 and 300 mg/kg) at 30 minutes and 4 hours after their administration. The Maximal Electroshock Seizure Test (MES): Maximal electroshock seizures are elicited with a 60 Hz alternating current of 50 mA intensity in mice and about 150 mA intensity in rats (5-7 times that necessary to elicit minimal electroshock seizures), delivered for 0.2 sec via corneal electrodes. A drop of 0.9% saline is instilled in the eye prior to application of the electrodes in order to […]. Abolition of the hind limb tonic extension component of the seizure is defined as protection and results are expressed as number of animals protected/number of animals tested. Anticonvulsant Quantification in Mice, i.p.: The ED50 values are determined in the MES, scMet and rotorod ataxia test.

A short description of data set [3]: in vivo. The arrangement: species or system rat (Sprague-Dawley). To be noted: rat, po. On the procedure: (§2) Neurotoxicity is determined by the rotorod ataxia test in mice and by the positional sense test and gait and stance test in the rat.
(§3) This species will be the subject of the complete anticonvulsant quantification test evaluation as described above, but after oral (gavage) administration of the candidate compound.
Neurological deficit in rats is examined by the positional sense test and gait and stance test. […] Inability to do so rapidly indicates a neurologic deficit. In the gait and stance test, a neurologic deficit is indicated by a circular or a zigzag gait, ataxia, abnormal spread of the legs, abnormal body posture, tremor, hyperactivity, lack of exploratory behavior, somnolence, stupor, or catalepsy.

Data set [4] has as its system subcutaneous pentylenetetrazole (Metrazole) seizure. In words: Subcutaneous pentylenetetrazole (Metrazole) seizure threshold test (scMet), rat, p.o. In kind it is in vivo, rat (Sprague-Dawley). Particulars: po, rats, Table 6.
Source text: as §1
(§4) The Subcutaneous Pentylenetetrazol (Metrazole) Seizure Treshold Test (scMET): A 0.5 % solution of 85 mg/kg of pentylenetetrazole is administered subcutaneously in the posterior midline 30 minutes or 4 hours after drug administration to the animal. Failure to observe even a threshold seizure (a single episode of clonic spasms of at least 5 sec duration) is defined as protection and the results are expressed as number of animals protected/number of animals tested.
as §3

The test system is the same in data set [5]. In words: Subcutaneous pentylenetetrazole (Metrazole) seizure threshold test (scMet), mouse, i.p. To be noted: ip, mice, Table 5. In kind it is in vivo, mouse (male Carworth Farms #1).
Source text: as §1
In mice. i.p.: All compounds are emulsified in 0.5% methylcellulose. The solvent has been tested for anticonvulsant and toxic effects and found to introduce no significant bias into the testing of anticonvulsant activity. The compounds are administered intraperitoneally in a volume of 0.01 ml/gm to male Carworth Farms #1 mice weighing about 20 gm. All compounds are tested at least at three dose levels (30, 100 and 300 mg/kg) at 30 minutes and 4 hours after their administration.
as §4
(§5) Anticonvulsant Quantification in Mice, i.p.: The ED50 values are determined in the MES, scMet and rotorod ataxia test.

Data set [6] in a line: in vivo. More on the design: species or system mouse (male Carworth Farms #1). To be noted: mouse, ip. On the procedure: as §2
Neurotoxicity is evaluated in mice by the rotorod ataxia test. The animal is placed on a wooden rod of 1 and 1/8" diameter rotating at 6 rpm. Normal mice can remain on a rod rotating at this speed indefinitely.
as §5

Where [7] appears, read: Rattus norvegicus, rats, Table 6, read-out: ED50, MES.
[8] abbreviates: rat, Table 7, read-out: Anticonvulsant Efficacy (ED50, mg/kg) in the MES Test.

For the compound `CC(=NNc1ccc(Cl)c(Cl)c1)c1ccncc1` [Compound 1, Methyl 4-pyridyl ketone 3,4-dichlorophenylhydrazone], the ED50 was 71 mg/kg in the data set on TTE seizure (Mus musculus, ip, mice, Table 5); 16.9 mg/kg in data set [1] (setting [7]); 16.9 mg/kg in data set [1] (setting [8]); over 250 mg/kg in data set [4]. Further, the “ASP Group Classification, TTE Test” value in the data set on TTE seizure (mouse, 100 mg/kg) was “I (They demonstrate anticonvulsant activity in either the MES test or the scMet test, or both at doses of 100 mg/kg or 30 mg/kg without signs of neurological deficit and thus have an estimated protective index of greater than 1)”. In addition, in the data set with TTE seizure (mouse, 100 mg/kg), the “TTE Test (Percent Protection)” value is 62%. The responders at 30 mg/kg in data set [1] (rat) was 25 to 95%. Also, the “P.I., TD50/ED50, MES” value in data set [1] (rats) is given as over 29.64. Besides, the “ASP Group Classification, MES Test” value in data set [2] was “III (Those failing to demonstrate anticonvulsant activity at doses up to 300 mg/kg are considered inactive)”. The TD50 in “in vivo [3]” was over 500 mg/kg.

On to `CC(=NNc1cccc(Cl)c1)c1ccncc1` [Compound 3, Methyl 4-pyridyl ketone 3-chlorophenyl hydrazone], for which the ED50 was over 500 mg/kg in data set [5], 36.6 mg/kg in data set [1] (setting [7]), 81.8 mg/kg in data set [2] and over 250 mg/kg in data set [4]. Further, the responders at 30 mg/kg in data set [1] (rat) was 50 to 100%. The “P.I., TD50/ED50, MES” value in data set [1] (rats) is given as over 13.65; in data set [2] it was 5.39. In addition, the “ASP Group Classification, MES Test” value in data set [2] was “II (show anticonvulsant activity at doses greater than 100 mg/kg or show activity at 100 mg/kg which is not reinforced by similar activity at 300 mg/kg)”. The results for the TD50 in “in vivo [3]” and in “in vivo [6]” were over 500 mg/kg and 441 mg/kg, respectively.

In the case of `CC(=NNc1ccc(Cl)c(Cl)c1)c1cccnc1` [Compound 4, Methyl 3-pyridyl ketone 3,4-dichlorophenylhydrazone], the ED50 in data set [5] is over 500 mg/kg. In addition, the responders at 30 mg/kg in data set [1] (rat) lay within 25 to 100%. In data set [2], the ED50 stood at 69.8 mg/kg; the “P.I., TD50/ED50, MES” value is on record as over 7.17; the “ASP Group Classification, MES Test” value is “I (They demonstrate anticonvulsant activity in either the MES test or the scMet test, or both at doses of 100 mg/kg or 30 mg/kg without signs of neurological deficit and thus have an estimated protective index of greater than 1)”. Further, the TD50 in the data set “in vivo [6]” was over 500 mg/kg.

Consider `CC(=NNc1ccc(Cl)cc1)c1cccnc1` [Compound 5, Methyl 3-pyridyl ketone 4-chlorophenylhydrazone], for which the ED50 is 7.79 mg/kg in data set [1] (setting [7]), 7.8 mg/kg in data set [1] (setting [8]) and over 250 mg/kg in data set [4]. Further, in data set [1] (rat), the responders at 30 mg/kg is 50 to 100%. Besides, the “P.I., TD50/ED50, MES” value in data set [1] (rats) was over 64.12. In data set [2], the “ASP Group Classification, MES Test” value is “I (They demonstrate anticonvulsant activity in either the MES test or the scMet test, or both at doses of 100 mg/kg or 30 mg/kg without signs of neurological deficit and thus have an estimated protective index of greater than 1)”. The compound further showed a TD50 in “in vivo [3]” of over 500 mg/kg.

Turning to `NC(=O)NN=C(c1ccccc1)c1ccncc1` [Compound 15, Phenyl 4-pyridyl ketone semicarbazone], in data set [5], the ED50 was over 300 mg/kg. Also, in data set [1] (rat), the responders at 30 mg/kg was in the range of 50 to 100% and the “protection at 30 mg/kg, MES Test” value is reported as 50-100%. For the same compound, in data set [2], the ED50 is 57.5 mg/kg; the “P.I., TD50/ED50, MES” value was found to be 2.79; the “ASP Group Classification, MES Test” value was “I (They demonstrate anticonvulsant activity in either the MES test or the scMet test, or both at doses of 100 mg/kg or 30 mg/kg without signs of neurological deficit and thus have an estimated protective index of greater than 1)”. Also, the TD50 in “in vivo [6]” is 160 mg/kg.

With `NC(=O)NN=C(c1ccccc1)c1cccnc1` [Compound 16, Phenyl 3-pyridyl ketone semicarbazone], in data set [1] (rat), the responders at 30 mg/kg lay within 75 to 100% and the “protection at 30 mg/kg, MES Test” value was 75-100%. In data set [2], the ED50 was found to be 21.8 mg/kg; the “P.I., TD50/ED50, MES” value stood at 3.87; the “ASP Group Classification, MES Test” value was “I (They demonstrate anticonvulsant activity in either the MES test or the scMet test, or both at doses of 100 mg/kg or 30 mg/kg without signs of neurological deficit and thus have an estimated protective index of greater than 1)”. The TD50 in the data set “in vivo [6]” turned out to be 84.6 mg/kg.
